Measurements published in the NIST ThermoML archive (doi:10.1021/acs.jced.6b00655).
Several values for one entry are separate records, joined by “and”; a condition that tells them apart may be missing. Equal values may be shown once. ± gives the expanded uncertainty stated by the source.

Details: 100 kPa, Liquid, Vibrating tube method

| Compound | mass density (343.15 K) | mass density (283.15 K) |
| --- | --- | --- |
| CCCC[N+](C)(C)C.O=S(=O)([N-]S(=O)(=O)C(F)(F)F)C(F)(F)F [butyltrimethylammonium bis(trifluoromethylsulfonyl)imide] | 1348.32 ± 10 kg/m3 and 1346.21 ± 10 kg/m3 |  |
| CCCC[N+]1(C)CCCC1.O=S(=O)([N-]S(=O)(=O)C(F)(F)F)C(F)(F)F |  | 1410.45 ± 10 kg/m3 and 1407.6 ± 10 kg/m3 |
